A short description of data set [1]: Stability assessment / semi-quantitative hygroscopicity in a relative humidity (RH) chamber. In kind it is physicochemical. Conditions: solid in RH chamber; morphology and parent:prodrug composition. As to the method:
“ND” in Table 2 refers to “No Data”. Purity was determined by HPLC. Melting point was determined by differential scanning calorimetry (“DSC”), and semi-quantitative hygroscopicity was determined in a relative humidity (“RH”) chamber.

Data set [2] can be described thus: Kinetic solubility (iSol Explorer method). In kind it is physicochemical. Conditions: system solution buffer (pION), aqueous buffer, kinetic from dmso stock. The procedure:
Kinetic solubility was determined using the iSol Explorer method (pION Inc.; Woburn, Mass.). Certain Example Compounds were dissolved in dimethylsulfoxide (DMSO; >99.9% ACS spectrophotometric grade; Sigma-Aldrich, St. Louis, Mo.) to a concentration of 100 mM. The DMSO stock was diluted 1:100 in system solution buffer (pION Inc. Wobum Mass.) that had been adjusted to the desired pH (5.0, 6.8, and 7.4) with either HCl or NaOH. The diluted samples in the desired buffer were incubated for 15 minutes at room temperature and filtered using 96-well plate with 0.25 mm glass fiber/1.2 μm polyethersulfone filter bottoms (Corning, Inc.; Corning, N.Y.). The filtrate is transferred to a second 96-well plate and read on a SpectraMAX 190 (Molecular Devices; Sunnyvale, Calif.) scanning from 190 to 498 nm. The data are analyzed with Sol Explorer Command version 2.2, (pION Inc. Woburn, Mass.) and the concentration reported in molarity and/or mass per volume.

Data set [3] in a line: Stability in mouse liver microsomal preparations. Conditions: liver microsomes, with and without 1 mM NADPH (not said which), read-out: Mouse Liver Microsomes t1/2. Format: in vitro ADME. As to the method:
(§1) Relative stability of Example Compound Nos. 1 through 60 in mouse plasma and mouse liver microsomal preparations.
(§2) Certain Example Compounds were each added to a final concentration of 1 μM to 1 mL of each of mouse plasma and mouse liver microsomal preparations (with and without 1 mM NADPH). Stability assays were run in duplicate and were sampled at 0, 5, 15, 30, 60 and 120 minutes as follows: one hundred microliter aliquots of samples were removed at the specified sampling times, and the reaction was quenched with 400 μL of acetonitrile.
(§3) Samples were analyzed by HPLC-ESI-MS/MS by measuring the peak area of both the starting Example Compound and parent compound (i.e., either Parent Compound A or Parent Compound B) that were created by removal of the Prodrug Moiety (as defined in Section 6 herein).
On the technique in general: Liver microsomes are a subcellular fraction often used to study metabolism.

Data set [4] is described as follows: Stability in mouse plasma. Format: in vitro ADME. Conditions: read-out: Mouse Plasma t1/2. As to the method:
as §1, §2, §3

Data set [5] relates to HT1080 human fibrosarcoma cancer cells. Nature of the data set: Anti-tumor activity in HT1080 human fibrosarcoma xenograft with twice daily dosing. Format: in vivo. The conditions noted are these: for animals with no detectable tumors by the end of the study: cohort of ten. The procedure:
One million HT1080 cells were implanted subcutaneously in the right flank of female nude mice (Crl:NU-Fox1^nu). When the median tumor volume (MTV) was approximately 209 mm^3, mice were randomized into four cohorts of ten animals. […] All cohorts were dosed twice daily for 7 days. The mice were observed daily for mortality and signs of toxicity. Tumor volumes and body weights were determined from Days 1 to 22. The results are depicted in FIG. 4.
On the technique in general: In xenograft studies the graft and the host belong to different species.

The mark [6] stands for this setting: pH 5.0, 15 minutes at room temperature.
[7] abbreviates: pH 6.8, 15 minutes at room temperature.
[8] abbreviates: pH 7.4, 15 minutes at room temperature.
Setting [9] is: Example Compounds 44/45 study, 8 mg/kg twice daily for 7 days, Day 9.
Setting [10] is: Example Compounds 44/45 study, 8 mg/kg twice daily for 7 days, end of the study, Day 22.
Setting [11] is: Example Compounds 44/45 study, 12 mg/kg twice daily for 7 days, Day 9.
Where [12] appears, read: Example Compounds 44/45 study, 12 mg/kg twice daily for 7 days, end of the study, Day 22.

In general, solubility refers to how much of the substance goes into solution per volume. A lower solubility goes with a poorly soluble substance. Regarding `CC(C)(C)C(=O)OC[n+]1cccc(CNC(=O)Nc2ccc(OCCc3ccccc3-c3ccccc3)cc2)c1` [Example 36, 3-{[({4-[2-(Biphenyl-2-yl)ethoxy]phenyl}carbamoyl)amino]methyl}-1-{[(2,2-dimethylpropanoyl)oxy]methyl}pyridinium], the “Stability at 60° C. and 75% RH” value in data set [1] is reported as “Oiled out at 1 hr No change in composition”. In addition, the solubility at 15 min came to 601 µM in data set [2] (setting [6]), 547 µM in data set [2] (setting [7]) and 524 µM in data set [2] (setting [8]).

Regarding `CCCC(=O)OC[n+]1cccc(CNC(=O)Nc2ccc(OCCc3ccccc3-c3ccccc3)cc2)c1` [Example 41, 3-{[({4-[2-(Biphenyl-2-yl)ethoxy]phenyl}carbamoyl)amino]methyl}-1-[(butanoyloxy)methyl]pyridinium], in data set [1], the “Stability at 40° C. and 75% RH” value is “No change in morphology at 14 days, only prodrug observed”; the “Stability at 60° C. and 75% RH” value was “Deliquesced at 24 hr No change in composition”. Also, the half-life at 1 µM in data set [3] was less than 5 min. In addition, the half-life at 1 µM in data set [4] is less than 5 min.

With `CC(C)C(=O)OC[n+]1cccc(CNC(=O)Nc2ccc(OCCc3ccccc3-c3ccccc3)cc2)c1` [Example 44, 3-{[({4-[2-(Biphenyl-2-yl)ethoxy]phenyl}carbamoyl)amino]methyl}-1-{[(2-methylpropanoyl)oxy]methyl}pyridinium], in data set [1], the “Stability at 40° C. and 75% RH” value is “No change in morphology at 14 days, circa 7:93 parent to prodrug”. Also, the “Stability at 60° C. and 75% RH” value in data set [1] was “Deliquesced at 5 days approximately 50:50 parent to prodrug”. For the same compound, the half-life at 1 µM in data set [3] and in data set [4] was less than 5 min each time. Besides, the “animals with no detectable tumors by the end of the study” value is listed as “One” in data set [5] (Example Compounds 44/45 study, 8 mg/kg) and “three” in data set [5] (Example Compounds 44/45 study, 12 mg/kg). For the same compound, the MTV decrease stood at 62% in data set [5] (setting [9]), 67% in data set [5] (setting [11]) and 67% in data set [5] (setting [12]). Moreover, the values for the tumor regression in data set [5] (setting [9]), in data set [5] (setting [11]) and in data set [5] (setting [12]) were 62%, 67% and 67%, respectively. This compound yielded an MTV increase in data set [5] (setting [10]) of 16%. Further, the tumor growth inhibition in data set [5] (setting [10]) turned out to be 95%. The “anti-tumor activity in the HT1080 xenograft model (summary statement)” value in data set [5] (administered orally, twice daily, all doses tested) was “significant anti-tumor activity”. The Tolerability entry in data set [5] (xenograft mice, all doses tested, orally twice daily) is listed as “well tolerated”.

As for `CC(=O)OC[n+]1cccc(CNC(=O)Nc2ccc(OCCc3ccccc3-c3ccccc3)cc2)c1` [Example 34, 1-[(Acetyloxy)methyl]-3-{[({4-[2-(biphenyl-2-yl)ethoxy]phenyl}carbamoyl)amino]methyl}pyridinium], the values for the solubility at 15 min in data set [2] (setting [6]), in data set [2] (setting [7]) and in data set [2] (setting [8]) were 397 µM, 393 µM and 399 µM, respectively. Besides, the half-life at 1 µM in data set [3] is less than 5 min.

For the compound `CC(OC(=O)C(C)(C)C)[n+]1cccc(CNC(=O)Nc2ccc(OCCc3ccccc3-c3ccccc3)cc2)c1` (centres unmarked) [Example 39, 3-{[({4-[2-(Biphenyl-2-yl)ethoxy]phenyl}carbamoyl)amino]methyl}-1-{1-[(2,2-dimethylpropanoyl)oxy]ethyl}pyridinium], in data set [1], the “Stability at 40° C. and 75% RH” value is given as “Deliquesced at 2 Hr No change in composition”; the “Stability at 60° C. and 75% RH” value was “Deliquesced at 2 Hr No change in composition”. In addition, the half-life at 1 µM in data set [3] was 113 min. For the same compound, the half-life at 1 µM in data set [4] came out at 27 min.

`CC(=O)OC(C(C)C)[n+]1cccc(CNC(=O)Nc2ccc(OCCc3ccccc3-c3ccccc3)cc2)c1` (centres unmarked) [Example 38, 1-[1-(Acetyloxy)-2-methylpropyl]-3-{[({4-[2-(biphenyl-2-yl)ethoxy]phenyl}carbamoyl)amino]methyl}pyridinium]: in data set [1], the “Stability at 40° C. and 75% RH” value is recorded as “No change in morphology at 7 days”. Also, in data set [1], the “Stability at 60° C. and 75% RH” value is recorded as “Deliquesced at 4 days”. Besides, the half-life at 1 µM was 30.9 min in data set [3] and greater than 5 min in data set [4].

For `CC(C)C(OC(=O)C(C)(C)C)[n+]1cccc(CNC(=O)Nc2ccc(OCCc3ccccc3-c3ccccc3)cc2)c1` (centres unmarked) [Example 40, 3-{[({4-[2-(Biphenyl-2-yl)ethoxy]phenyl}carbamoyl)amino]methyl}-1-{1-[(2,2-dimethylpropanoyl)oxy]-2-methylpropyl}pyridinium], the “Stability at 40° C. and 75% RH” value in data set [1] is given as “No change in morphology at 14 days, only prodrug observed”. The “Stability at 60° C. and 75% RH” value in data set [1] is listed as “Approximately 5:95 parent to prodrug moiety observed at 14 days”. For the same compound, the half-life at 1 µM in data set [3] worked out at 399 min; in data set [4], 53.5 min.

For `CC(C)C(OC(=O)c1ccccc1)[n+]1cccc(CNC(=O)Nc2ccc(OCCc3ccccc3-c3ccccc3)cc2)c1` (centres unmarked) [Example 43, 1-[1-(Benzoyloxy)-2-methylpropyl]-3-{[({4-[2-(biphenyl-2-yl)ethoxy]phenyl}carbamoyl)amino]methyl} pyridinium], in data set [1], the “Stability at 40° C. and 75% RH” value is “No change in morphology at 14 days, only prodrug observed”; the “Stability at 60° C. and 75% RH” value is “Approximately 5:95 parent to prodrug observed at 14 days”. The half-life at 1 µM in data set [3] came to 59.1 min. Moreover, the half-life at 1 µM in data set [4] is 29.8 min.

The record behind these values is patent publication US20150344426A1, “COMPOUNDS AND THERAPEUTIC USES THEREOF” (ALZHEIMER'S INSTITUTE OF AMERICA, INC., priority 2012, published 2015).
